Entries after “also recorded” stand apart in the source; their conditions may differ. Read-outs that look alike come from different tables or passages of the source. Marks after values point to notes of the source that are not given here. Values belong to the compound of their own block, whether it stands above or below them.
Assays:
OATP-B = tested on: OATP-B; set-up: method as in PMID 16415120; conditions: cited from earlier work
[1] = cited from earlier work
in vivo = conditions: male, Sprague Dawley, rat, po, 30 mg/kg
[2] = combined use with St. John’s wort, a CYP3A4 inducer; cited from earlier work
CYP3A = conditions: in vitro, different CYP3A substrates; read-out: IC50 of CYP3A inhibition; cited from earlier work
[3] = after oral administration of imatinib; cited from earlier work
[4] = intragastric administration of green tea, rats
[5] = male, Sprague Dawley, rat, in vivo, po, 30 mg/kg
[6] = metabolite, rats, imatinib 30 mg/kg IG + KTZ 75 mg/kg/day 3 days
[7] = metabolite, rats, imatinib 30 mg/kg IG + h-GS 100 mg/kg/day 21 days
[8] = metabolite, rats, imatinib 30 mg/kg IG + h-GS 100 mg/kg/day 21 days, vs imatinib only
[9] = metabolite, rats, imatinib 30 mg/kg IG + h-GS 100 mg/kg/day 21 days, vs l-GS group
[10] = metabolite, rats, imatinib 30 mg/kg IG + h-GS 100 mg/kg/day 21 days, when GS dose was doubled
[11] = metabolite, rats, imatinib 30 mg/kg IG + h-GS and h-GT 100 mg/kg/day each 21 days
[12] = metabolite, rats, imatinib 30 mg/kg IG + h-GS and h-GT 100 mg/kg/day each 21 days, vs imatinib only
[13] = metabolite, rats, imatinib 30 mg/kg IG + h-GS and h-GT 100 mg/kg/day each 21 days, vs l-GS and l-GT group
[14] = metabolite, rats, imatinib 30 mg/kg IG + h-GT 100 mg/kg/day 21 days
[15] = metabolite, rats, imatinib 30 mg/kg IG + l-GS 50 mg/kg/day 21 days
[16] = metabolite, rats, imatinib 30 mg/kg IG + l-GT 50 mg/kg/day 21 days
[17] = metabolite, rats, imatinib 30 mg/kg IG only (control)
[18] = rats, imatinib 30 mg/kg IG + KTZ 75 mg/kg/day 3 days
[19] = rats, imatinib 30 mg/kg IG + h-GS 100 mg/kg/day 21 days
[20] = rats, imatinib 30 mg/kg IG + h-GS and h-GT 100 mg/kg/day each 21 days
[21] = rats, imatinib 30 mg/kg IG + h-GT 100 mg/kg/day 21 days
[22] = rats, imatinib 30 mg/kg IG + l-GS 50 mg/kg/day 21 days
[23] = rats, imatinib 30 mg/kg IG + l-GS and l-GT 50 mg/kg/day each 21 days
[24] = rats, imatinib 30 mg/kg IG + l-GT 50 mg/kg/day 21 days
[25] = rats, imatinib 30 mg/kg IG only (control)

Compound: Oc1cc(O)c2c(c1)O[C@H](c1ccc(O)c(O)c1)[C@@H](O)C2 [(+)-catechin]
inhibition of estrone-3-sulfate uptake (OATP-B; concentration of 100 mM): 31.7%

Compound: Oc1cc(O)c2c(c1)O[C@H](c1ccc(O)c(O)c1)[C@H](O)C2 [EC, (−)-epicatechin]
inhibition of estrone-3-sulfate uptake (OATP-B; concentration of 10 mM): 27.2%
bioavailability [1, 4]: 31.2%

Compound: Oc1cc(O)c2c(c1)O[C@H](c1cc(O)c(O)c(O)c1)[C@H](O)C2 [EGC, (−)-epigallocatechin]
inhibition of estrone-3-sulfate uptake (OATP-B; concentration of 100 mM): 29.1%
bioavailability ([1]; rat, in vivo, po): 13.7%

Compound: O=C(O[C@@H]1Cc2c(O)cc(O)cc2O[C@@H]1c1cc(O)c(O)c(O)c1)c1cc(O)c(O)c(O)c1 [EGCG, (−)-epigallocatechin-3-gallate]
inhibition of estrone-3-sulfate uptake (OATP-B; concentration of 10 mM): 29.5%
bioavailability [1, 4]: 0.1%

Cmax (in vivo): 6400 ± 3160 ng/mL
AUC0∞ [5]: 105,160.8 ± 75,643.2 ng^.h/mL
tmax [5]: 4.8 ± 2.3 h
decrease in t0.5 (rats, imatinib 30 mg/kg IG + h-GS 100 mg/kg/day 21 days, vs imatinib only): ↓ 16.1%*
decrease in t0.5 (rats, imatinib 30 mg/kg IG + h-GS 100 mg/kg/day 21 days, vs imatinib only, listed as imatinib): 16.1%
decrease in t0.5 (rats, imatinib 30 mg/kg IG + h-GS and h-GT 100 mg/kg/day each 21 days, vs imatinib only): 21.9%
decrease in t0.5 (rats, imatinib 30 mg/kg IG + h-GS and h-GT 100 mg/kg/day each 21 days, vs l-GS and l-GT group): 23.1%
decrease in t0.5 (rats, imatinib 30 mg/kg IG + h-GT 100 mg/kg/day 21 days, vs imatinib only): ↓ 15.8%*
decrease in t0.5 (rats, imatinib 30 mg/kg IG + h-GT 100 mg/kg/day 21 days, vs imatinib only, listed as imatinib): 15.8%
increase in t0.5 (rats, imatinib 30 mg/kg IG + l-GS and l-GT 50 mg/kg/day each 21 days, vs l-GS group): 1.1 fold
increase in t0.5 (rats, imatinib 30 mg/kg IG + l-GS and l-GT 50 mg/kg/day each 21 days, vs l-GT group): 1.3 fold
Compound: Cc1ccc(NC(=O)c2ccc(CN3CCN(C)CC3)cc2)cc1Nc1nccc(-c2cccnc2)n1 [Imatinib, reference compound]
reduction of the area under the curve (AUC) [2]: 30%

Compound: Cc1ccc(NC(=O)c2ccc(CN3CCNCC3)cc2)cc1Nc1nccc(-c2cccnc2)n1 [N-desmethyl imatinib]
t0.5 [6]: 9.9 ± 4.4 h
tmax [6]: 7.5 ± 1.0 h
MRT [7]: 9.5 ± 1.0 h
t0.5 [7]: 7.1 ± 0.9 h
tmax [7]: 4.7 ± 2.0 h
decrease in AUC0∞ [8]: 73.0%
decrease in Cmax [8]: 67.8%
increase in CL/F [8]: 3.7 fold
increase in Vz/F [8]: 4.1 fold
decrease in AUC0∞ [9]: 58.5%
decrease in Cmax [9]: 63.3%
increase in CL/F [9]: 2.5 fold
increase in Vz/F [9]: 2.9 fold
decrease in AUC0∞ [10]: ~ 2 fold
decrease in Cmax [10]: ~ 2 fold
MRT [11]: 11.9 ± 2.3 h
tmax [11]: 4.8 ± 2.2 h
increase in t0.5 (metabolite, rats, imatinib 30 mg/kg IG + h-GS and h-GT 100 mg/kg/day each 21 days, vs h-GS group): 1.5 fold
increase in t0.5 (metabolite, rats, imatinib 30 mg/kg IG + h-GS and h-GT 100 mg/kg/day each 21 days, vs h-GT group): 1.4 fold
decrease in AUC0∞ [12]: 72.1%
decrease in Cmax [12]: 71.5%
increase in CL/F [12]: 5.3 fold
increase in Vz/F [12]: 8.7 fold
increase in t0.5 [12]: 1.6 fold
decrease in AUC0∞ [13]: 75.8%
decrease in Cmax [13]: 71.9%
increase in CL/F [13]: 6.5 fold
increase in Vz/F [13]: 8.8 fold
increase in t0.5 [13]: 1.3 fold
increase in the terminal half-life (metabolite, rats, imatinib 30 mg/kg IG + h-GS and h-GT 100 mg/kg/day each 21 days, vs other high dose groups (h-GS or h-GT, not specified)): 1.4 fold
MRT [14]: 11.9 ± 2.6 h
tmax [14]: 5.2 ± 2.6 h
Cmax [15]: 408.8 ± 113.6 ng/mL
t0.5 [15]: 6.2 ± 0.5 h
tmax [15]: 4.2 ± 1.0 h
tmax (metabolite, rats, imatinib 30 mg/kg IG + l-GS and l-GT 50 mg/kg/day each 21 days): 5.8 ± 2.6 h
effect on pharmacokinetics (metabolite, rats, imatinib 30 mg/kg IG + l-GS and l-GT 50 mg/kg/day each 21 days, vs imatinib only): no significant effects; also recorded: not significantly affected
increase in AUC0∞ (metabolite, rats, imatinib 30 mg/kg IG + l-GS and l-GT 50 mg/kg/day each 21 days, vs l-GS group): 1.8 fold
increase in AUC0∞ (metabolite, rats, imatinib 30 mg/kg IG + l-GS and l-GT 50 mg/kg/day each 21 days, vs l-GT group): 6.1 fold
MRT [16]: 11.2 ± 1.8 h
t0.5 [16]: 8.0 ± 0.7 h
tmax [16]: 5.3 ± 1.6 h
AUC0∞ [17]: 7143.3 ± 2165.3 ng^.h/mL
Cmax [17]: 465.6 ± 94.0 ng/mL
MRT [17]: 11.6 ± 3.8 h
t0.5 [17]: 6.6 ± 0.5 h
tmax [17]: 6.7 ± 2.1 h
differences in pharmacokinetic parameters (metabolite, rats, imatinib 30 mg/kg IG, l-GT vs h-GT group): no significant differences
AUC0∞ metabolite/AUC0∞ drug percentage [18]: 3.3%
Cmax (metabolite) /Cmax (drug) percentage [18]: 3.4%
AUC0∞ metabolite/AUC0∞ drug percentage [19]: 6.6%
Cmax (metabolite) /Cmax (drug) percentage [19]: 6.0%
AUC0∞ metabolite/AUC0∞ drug percentage [20]: 4.0%
Cmax (metabolite) /Cmax (drug) percentage [20]: 3.6%
AUC0∞ metabolite/AUC0∞ drug percentage [21]: 6.0%
Cmax (metabolite) /Cmax (drug) percentage [21]: 5.3%
AUC0∞ metabolite/AUC0∞ drug percentage [22]: 7.8%
Cmax (metabolite) /Cmax (drug) percentage [22]: 7.9%
AUC0∞ metabolite/AUC0∞ drug percentage [23]: 5.5%
Cmax (metabolite) /Cmax (drug) percentage [23]: 5.0%
AUC0∞ metabolite/AUC0∞ drug percentage [24]: 3.5%
Cmax (metabolite) /Cmax (drug) percentage [24]: 3.2%
AUC0∞ metabolite/AUC0∞ drug percentage [25]: 6.8%
Cmax (metabolite) /Cmax (drug) percentage [25]: 7.3%
elimination half-life [3]: 40 h

Compound: (−)-epicatechin-3-gallate [ECG]
inhibition of estrone-3-sulfate uptake (OATP-B; concentration of 10 mM): 66.6%

— publication PMC7670682 (BMC Pharmacology & Toxicology, 2020)
